Measurements reported in US20250313563A1, “GLYCOGEN SYNTHASE KINASE 3 INHIBITORS AND USES THEREOF” (The Broad Institute, Inc., priority 2022, published 2025).
Read-outs that look alike come from different tables or passages of the source.

Experiments:
[1] = target: GSK3b (GST-full length GSK3b) (Homo sapiens (Human), UniProt P49841); assay: GSK3b TR-FRET kinase assay; format: biochemical
Outline: (§1)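 IC50s came from the normalized 665/615 TR-FRET ratio after Tb-anti-pSer641 antibody and streptavidin-d2 detection of phosphorylated biotin-glycogen synthase peptide (200 nM). ATP was 4 μM for GSK3α, 2 μM for GSK3b, or 1 mM; 1 nM enzyme, 100 min, ambient, pH 7.5, after 30-min compound preincubation.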

[2] = target: GSK3α (GST-full length GSK3α) (Homo sapiens (Human), UniProt P49840); assay: GSK3α TR-FRET kinase assay; format: biochemical
Sequence of GSK3α (GST-full length GSK3α) (P49840 whole entry): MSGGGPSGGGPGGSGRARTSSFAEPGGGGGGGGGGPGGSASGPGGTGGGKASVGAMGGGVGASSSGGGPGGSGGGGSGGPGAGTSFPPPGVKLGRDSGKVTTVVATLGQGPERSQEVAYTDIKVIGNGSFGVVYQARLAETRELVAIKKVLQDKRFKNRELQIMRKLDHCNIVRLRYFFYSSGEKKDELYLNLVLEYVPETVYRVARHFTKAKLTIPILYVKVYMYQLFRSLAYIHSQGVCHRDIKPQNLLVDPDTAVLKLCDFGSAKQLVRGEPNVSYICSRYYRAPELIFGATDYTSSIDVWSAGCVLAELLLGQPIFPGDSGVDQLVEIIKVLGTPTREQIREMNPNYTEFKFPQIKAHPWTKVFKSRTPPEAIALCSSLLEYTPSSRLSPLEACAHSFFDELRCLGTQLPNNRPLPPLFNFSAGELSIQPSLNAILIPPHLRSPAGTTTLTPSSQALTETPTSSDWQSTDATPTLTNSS
Outline: as §1

[3] = 1 nM GSK3b, 2 μM ATP, 30 minute preincubation, Table 16, read-out: GSK3-B TR-FRET BIOCHEMICAL (TR-FRET)
[4] = 1 nM GSK3α, 4 μM ATP, 30 minute preincubation, Table 16, read-out: GSK3-A TR-FRET BIOCHEMICAL (TR-FRET)
[5] = 1 nM GSK3b, 2 μM ATP, 30 minute preincubation, geometric mean, read-out: GSK3-B TR-FRET BIOCHEMICAL (TR-FRET), GMean, IC50
[6] = 1 nM GSK3α, 4 μM ATP, 30 minute preincubation, geometric mean, read-out: GSK3-A TR-FRET BIOCHEMICAL (TR-FRET), GMean, IC50
[7] = 1 nM GSK3b, 2 μM ATP, 30 minute preincubation, read-out: GSK3-B TR-FRET BIOCHEMICAL (TR-FRET), IC50
[8] = 1 nM GSK3α, 4 μM ATP, 30 minute preincubation, read-out: GSK3-A TR-FRET BIOCHEMICAL (TR-FRET), IC50
[9] = 1 nM GSK3b, 2 μM ATP, 30 minute preincubation, Table 16, read-out: GSK3-B TR-FRET BIOCHEMICAL (TR-FRET), IC50
[10] = 1 nM GSK3α, 4 μM ATP, 30 minute preincubation, Table 16, read-out: GSK3-A TR-FRET BIOCHEMICAL (TR-FRET), IC50
[11] = read-out: GSK3-B (TR-FRET 1 mM ATP), GMean, IC50, 1 mM ATP, geometric mean
[12] = read-out: GSK3-A (TR-FRET 1 mM ATP), GMean, IC50, 1 mM ATP, geometric mean
[13] = GSK3-B (TR-FRET 1 mM ATP), GMean, IC50, 1 mM ATP, geometric mean
[14] = GSK3-A (TR-FRET 1 mM ATP), GMean, IC50, 1 mM ATP, geometric mean

Sequence of GSK3b (GST-full length GSK3b) (P49841 whole entry): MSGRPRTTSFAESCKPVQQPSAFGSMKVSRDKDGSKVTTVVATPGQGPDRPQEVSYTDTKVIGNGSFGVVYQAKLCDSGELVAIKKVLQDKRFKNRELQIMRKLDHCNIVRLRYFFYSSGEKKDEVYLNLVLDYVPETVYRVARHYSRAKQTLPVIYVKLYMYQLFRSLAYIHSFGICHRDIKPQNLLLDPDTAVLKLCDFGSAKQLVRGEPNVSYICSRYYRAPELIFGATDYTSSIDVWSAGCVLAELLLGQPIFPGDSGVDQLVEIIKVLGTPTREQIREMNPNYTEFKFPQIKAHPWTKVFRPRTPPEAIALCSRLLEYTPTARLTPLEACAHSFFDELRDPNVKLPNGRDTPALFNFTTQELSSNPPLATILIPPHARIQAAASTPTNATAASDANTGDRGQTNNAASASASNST

CC1(C)CC(=O)C2=C(C1)Nc1n[nH]cc1C21CCN(S(=O)(=O)c2cccc(C(F)(F)F)c2)CC1 [Compound 947244]
IC50 [1, 3]: ≤ 100 nM | IC50 [2, 4]: ≤ 100 nM

C[C@H]1CC[C@@]2(C1)C1=C(CC(C)(C)CC1=O)Nc1n[nH]cc12 [Compound 897751]
IC50 [1, 3]: 100 to 1000 nM | IC50 [2, 4]: ≤ 100 nM

CCC1(c2cccc(-c3ccnc(C)c3)c2)C2=C(CC(C)(COC)NC2=O)Nc2n[nH]cc21 (centres unmarked) [Compound 948493]
IC50 [1, 5]: > 5000 nM | IC50 [2, 6]: > 5000 nM

CC1(C)CC(=O)C2=C(C1)Nc1n[nH]cc1C21COC2(CN(S(C)(=O)=O)C2)C1 (centres unmarked) [Compound 926808]
IC50 [1, 7]: ≤ 100 nM | IC50 [2, 8]: ≤ 100 nM

CCC1(c2cccc(-c3cn(C)nc3C)c2)C2=C(CC(C)(C)N(C)C2=O)Nc2n[nH]cc21 (centres unmarked) [Compound 949008]
IC50 [1, 5]: > 5000 nM | IC50 [2, 6]: 1000 to 5000 nM

CCC(C)C(=O)N1CC2(C1)CC1(CO2)C2=C(CC(C)(C)CC2=O)Nc2n[nH]cc21 (centres unmarked) [Compound 947270]
IC50 [1, 7]: 100 to 1000 nM | IC50 [2, 8]: ≤ 100 nM

CCC1(c2cccc(N(c3cccnc3)C3CC3)c2)C2=C(CC(C)(C)CC2=O)Nc2n[nH]cc21 (centres unmarked) [Compound 913274]
IC50 [1, 9]: ≤ 100 nM | IC50 [2, 10]: ≤ 100 nM

CCC1(c2cccc(OC(C)C)c2)C2=C(CC(C)(C)CC2=O)Nc2n[nH]cc21 (centres unmarked) [Compound 801448]
IC50 [1, 5]: 100 to 1000 nM | IC50 [2, 6]: ≤ 100 nM

CCC1(c2cccc(S(=O)(=O)C(C)C)c2)C2=C(CC(C)(C)NC2=O)Nc2n[nH]c(C)c21 (centres unmarked) [Compound 947876]
IC50 [1, 5]: ≤ 100 nM | IC50 [1, 11]: 100 to 1000 nM | IC50 [2, 6]: ≤ 100 nM | IC50 [2, 12]: ≤ 100 nM

CC[C@]1(c2cccc(-c3cn(C)nc3C)c2)C2=C(CC(C)(C)NC2=O)Nc2n[nH]c(Cl)c21 [Compound 949329]
IC50 [1, 9]: > 5000 nM | IC50 [2, 10]: 1000 to 5000 nM

CCC1(c2cccc(-c3ccncc3F)c2)C2=C(CC(C)(C)CC2=O)Nc2n[nH]c(C)c21 (centres unmarked) [Compound 913017]
IC50 [1, 9]: 100 to 1000 nM | IC50 [2, 10]: 100 to 1000 nM

C[C@@]1(c2ccccc2)C2=C(CC3(CCCC3)CC2=O)Nc2n[nH]cc21 [Compound 792338]
IC50 [1, 5]: 100 to 1000 nM | IC50 [2, 6]: ≤ 100 nM

CC1(C)CC(=O)C2=C(C1)Nc1n[nH]cc1C21CC(C(F)(F)F)C1 (centres unmarked) [Compound 874527]
IC50 [1, 3]: 100 to 1000 nM | IC50 [2, 4]: ≤ 100 nM

C[C@H]1CC(=O)C2=C(C1)Nc1n[nH]cc1[C@]2(C)c1ccccc1 [Compound 789332]
IC50 [1, 5]: 100 to 1000 nM | IC50 [2, 6]: 100 to 1000 nM

CCC1(c2cccc(N(C)c3ncccn3)c2)C2=C(CC(C)(C)NC2=O)Nc2n[nH]c(C(F)(F)F)c21 (centres unmarked) [Compound 949181]
IC50 [1, 11]: 100 to 1000 nM | IC50 [2, 12]: ≤ 100 nM

CC1(C)CC(=O)C2=C(C1)Nc1n[nH]cc1C21CN(S(=O)(=O)C2CC2)C1 [Compound 913259]
IC50 [1, 3]: ≤ 100 nM | IC50 [2, 4]: ≤ 100 nM

Cc1ccc(C)c(S(=O)(=O)N2CCC3(CC2)C2=C(CC(C)(C)CC2=O)Nc2n[nH]cc23)c1 [Compound 947471]
IC50 [1, 3]: 100 to 1000 nM | IC50 [2, 4]: ≤ 100 nM

CCOc1ccc(S(=O)(=O)N2CCC3(CC2)C2=C(CC(C)(C)CC2=O)Nc2n[nH]cc23)cc1 [Compound 945670]
IC50 [1, 3]: ≤ 100 nM | IC50 [1, 13]: 1000 to 5000 nM | IC50 [2, 4]: ≤ 100 nM | IC50 [2, 14]: 100 to 1000 nM

CCC1(c2cccc(-c3ccnc(C)c3)c2)C2=C(CC3(CCOC3)CC2=O)Nc2n[nH]cc21 (centres unmarked) [Compound 947412]
IC50 [1, 3]: > 5000 nM | IC50 [2, 4]: 1000 to 5000 nM

CCC1(c2cccc(C(F)(F)F)c2)C2=C(CC3(CCCC3)CC2=O)Nc2n[nH]cc21 (centres unmarked) [Compound 790617]
IC50 [1, 5]: ≤ 100 nM | IC50 [2, 6]: ≤ 100 nM

CCC1(c2cccc(-c3c(C)nn(C)c3C)c2)C2=C(CC(C)(C)CC2=O)Nc2n[nH]c(C)c21 (centres unmarked) [Compound 883995]
IC50 [1, 9]: ≤ 100 nM | IC50 [2, 10]: ≤ 100 nM

CC[C@]1(c2cccc(-c3ccnc4ccc(Cl)cc34)c2)C2=C(CC(C)(C)N(C)C2=O)Nc2n[nH]cc21 [Compound 948517]
IC50 [1, 5]: ≤ 100 nM | IC50 [2, 6]: ≤ 100 nM

CC1(C)CC(=O)C2=C(C1)Nc1n[nH]cc1C21CCN(S(=O)(=O)c2ccn(-c3ccccc3)n2)CC1 [Compound 947461]
IC50 [1, 7]: ≤ 100 nM | IC50 [2, 8]: ≤ 100 nM

CC1(C)CC(=O)C2=C(Nc3n[nH]cc3[C@]23CC[C@@H](C(F)(F)F)CC3)C1F (some centres unmarked) [Compound 917135]
IC50 [1, 3]: 100 to 1000 nM | IC50 [2, 4]: ≤ 100 nM

CCC1(c2cccc(C(F)(F)F)c2)C2=C(CCC2=O)Nc2n[nH]cc21 (centres unmarked) [Compound 949639]
IC50 [1, 9]: 100 to 1000 nM | IC50 [2, 10]: 100 to 1000 nM

CCC1(c2cccc(-c3ccnc4ccccc34)c2)C2=C(CC(C)(C)CC2=O)Nc2n[nH]cc21 (centres unmarked) [Compound 932631]
IC50 [1, 9]: ≤ 100 nM | IC50 [2, 10]: ≤ 100 nM

CCC1(c2cccc(-c3ccnc(OC)n3)c2)C2=C(CC(C)(C)CC2=O)Nc2n[nH]cc21 (centres unmarked) [Compound 948092]
IC50 [1, 3]: ≤ 100 nM | IC50 [2, 4]: ≤ 100 nM

CC1(C)CC(=O)C2=C(C1)Nc1n[nH]cc1C2(C)c1cccc(-c2ccncc2)c1 (centres unmarked) [Compound 790730]
IC50 [1, 5]: 100 to 1000 nM | IC50 [2, 6]: ≤ 100 nM

CC[C@]1(c2cccc(-c3cncn3C)c2)C2=C(CC(C)(C)CC2=O)Nc2n[nH]cc21 [Compound 945605]
IC50 [1, 3]: ≤ 100 nM | IC50 [2, 4]: ≤ 100 nM

CCC1(c2cccc(S(=O)(=O)C(C)C)c2)C2=C(CC(C)(C)CC2=O)Nc2n[nH]cc21 (centres unmarked) [Compound 913134]
IC50 [1, 9]: 1000 to 5000 nM | IC50 [2, 10]: 100 to 1000 nM

CC[C@]1(c2cccc(-c3ccncc3F)c2)C2=C(CC(C)(C)CC2=O)Nc2n[nH]c(C(F)(F)F)c21 [Compound 947326]
IC50 [1, 3]: ≤ 100 nM | IC50 [1, 11]: ≤ 100 nM | IC50 [2, 4]: ≤ 100 nM | IC50 [2, 12]: ≤ 100 nM

CCC1(c2cccc(Cc3ncccc3C(F)(F)F)c2)C2=C(CC(C)(C)CC2=O)Nc2n[nH]cc21 (centres unmarked) [Compound 947548]
IC50 [1, 3]: 100 to 1000 nM | IC50 [2, 4]: 100 to 1000 nM

CC[C@@]1(c2cccc(-c3ccnc4cc(Cl)ccc34)c2)C2=C(CC(C)(C)NC2=O)Nc2n[nH]cc21 [Compound 948362]
IC50 [1, 5]: > 5000 nM | IC50 [2, 6]: > 5000 nM

CCN(c1cccnc1)c1cccc(C2(CC)C3=C(CC(C)(C)CC3=O)Nc3n[nH]cc32)c1 (centres unmarked) [Compound 917088]
IC50 [1, 9]: ≤ 100 nM | IC50 [1, 11]: 1000 to 5000 nM | IC50 [2, 10]: ≤ 100 nM | IC50 [2, 12]: 100 to 1000 nM

COc1cccc(S(=O)(=O)N2CC[C@@]3(C2)C2=C(CC(C)(C)CC2=O)Nc2n[nH]cc23)c1 [Compound 951790]
IC50 [1, 3]: ≤ 100 nM | IC50 [2, 4]: ≤ 100 nM

CC[C@@]1(c2cccc(N(C)c3ncccn3)c2)C2=C(CC(C)(C)NC2=O)Nc2n[nH]c(Cl)c21 [Compound 951618]
IC50 [1, 9]: 1000 to 5000 nM | IC50 [2, 10]: 100 to 1000 nM

CCC1(c2cccc(C(F)(F)F)c2)C2=C(CCN(c3ccccn3)C2=O)Nc2n[nH]cc21 (centres unmarked) [Compound 949310]
IC50 [1, 9]: 100 to 1000 nM | IC50 [1, 11]: > 5000 nM | IC50 [2, 10]: ≤ 100 nM | IC50 [2, 12]: 100 to 1000 nM

CCC1(c2cccc(C(F)(F)F)c2)C2=C(Nc3n[nH]cc31)C(F)C(C)(C)CC2=O (single isomer, unassigned) [Compound 837683, 4-ethyl-8-fluoro-7,7-dimethyl-4-(3-(trifluoromethyl)phenyl)-2,4,6,7,8,9-hexahydro-5H-pyrazolo[3,4-b]quinolin-5-one]
IC50 [1, 5]: 100 to 1000 nM | IC50 [1, 13]: > 5000 nM | IC50 [2, 6]: ≤ 100 nM | IC50 [2, 14]: 100 to 1000 nM

CC1(C)CC(=O)C2=C(C1)Nc1n[nH]cc1C21COC2(CN(C(=O)c3ccccc3F)C2)C1 (centres unmarked) [Compound 947289]
IC50 [1, 7]: ≤ 100 nM | IC50 [2, 8]: ≤ 100 nM

CC[C@]1(c2ccccc2)C2=C(C[C@]3(CCN(C)C3=O)CC2=O)Nc2n[nH]cc21 [Compound 949754]
IC50 [1, 3]: > 5000 nM | IC50 [2, 4]: > 5000 nM
